Measured values reported in patent US20260285850A1, “SUBSTITUTED OXAZOLIDINONES AND IMIDAZOLINONES AS HERBICIDES” (FMC CORPORATION, priority 2023, published 2026).

Assays:
Type in all cases: in vivo
[1] = system: barnyardgrass (Echinochloa crusgalli); assay: Test B flooded paddy test, visual plant response rating 0-100; conditions: 250 g ai/ha, Flood, applied to paddy water, evaluated after 13 days
Summary of the method: (§1)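 Each species was raised to two leaves before flooding to a 3 cm depth and dosing the water with compound. Injury was assessed by eye after 13 days under greenhouse conditions.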

[2] = system: ducksalad (Heteranthera limosa); assay: as above; conditions: 250 g ai/ha, Flood, applied to paddy water, evaluated after 13 days
Summary of the method: as §1

[3] = system: sedge, umbrella (small-flower umbrella sedge, Cyperus difformis); assay: as above; conditions: 250 g ai/ha, Flood, applied to paddy water, evaluated after 13 days
Summary of the method: as §1

rice (Oryza sativa) = assay: as above; conditions: 250 g ai/ha, Flood, applied to paddy water, evaluated after 13 days
Summary of the method: as §1

[4] = system: horseweed (Erigeron canadensis); assay: Test A postemergence application, visual injury rating 0-100; conditions: Postemergence, 10 days, 0 is no effect, 100 is complete control
Summary of the method: (§2)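 Visual injury, scored 0-100 (100 = complete control) against untreated plants, 10 days after greenhouse treatment. Test chemicals in surfactant-containing non-phytotoxic solvent were applied in loam soil and sand, as a preemergence soil spray on seeds or postemergence to plants at the one- to two-leaf stage.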

[5] = system: barnyardgrass (Echinochloa crus-galli); assay: as above; conditions: Postemergence, 10 days, 0 is no effect, 100 is complete control
Summary of the method: as §2

[6] = system: ragweed (common ragweed, Ambrosia artemisiifolia); assay: as above; conditions: Postemergence, 10 days, 0 is no effect, 100 is complete control
Summary of the method: as §2

[7] = system: oat, wild (wild oat, Avena fatua); assay: as above; conditions: Postemergence, 10 days, 0 is no effect, 100 is complete control
Summary of the method: as §2

[8] = system: ryegrass, Italian (italian ryegrass, Lolium multiflorum); assay: as above; conditions: Postemergence, 10 days, 0 is no effect, 100 is complete control
Summary of the method: as §2

[9] = system: green foxtail (Setaria viridis); assay: as above; conditions: Postemergence, 10 days, 0 is no effect, 100 is complete control
Summary of the method: as §2

[10] = system: blackgrass (Alopecurus myosuroides); assay: as above; conditions: Postemergence, 10 days, 0 is no effect, 100 is complete control
Summary of the method: as §2

[11] = system: palmer (palmer amaranth, palmer pigweed, Amaranthus palmeri); assay: as above; conditions: Postemergence, 10 days, 0 is no effect, 100 is complete control
Summary of the method: as §2

[12] = system: wheat (Triticum aestivum); assay: as above; conditions: Postemergence, 10 days, 0 is no effect, 100 is complete control
Summary of the method: as §2

corn (Zea mays) [13] = assay: as above; conditions: Postemergence, 10 days, 0 is no effect, 100 is complete control
Summary of the method: as §2

soybean (Glycine max) [14] = assay: as above; conditions: Postemergence, 10 days, 0 is no effect, 100 is complete control
Summary of the method: as §2

kochia (Bassia scoparia) [15] = assay: as above; conditions: Postemergence, 10 days, 0 is no effect, 100 is complete control
Summary of the method: as §2

[16] = system: galium (catchweed bedstraw, Galium aparine); assay: as above; conditions: Postemergence, 10 days, 0 is no effect, 100 is complete control
Summary of the method: as §2

[17] = system: barnyardgrass (Echinochloa crus-galli); assay: Test A preemergence soil spray, visual injury rating 0-100; conditions: 10 days, 0 = no effect, 100 = complete control
Summary of the method: as §2

[18] = system: ragweed (common ragweed, Ambrosia artemisiifolia); assay: as above; conditions: 10 days, 0 = no effect, 100 = complete control
Summary of the method: as §2

[19] = system: oat, wild (wild oat, Avena fatua); assay: as above; conditions: 10 days, 0 = no effect, 100 = complete control
Summary of the method: as §2

[20] = system: ryegrass, Italian (italian ryegrass, Lolium multiflorum); assay: as above; conditions: 10 days, 0 = no effect, 100 = complete control
Summary of the method: as §2

[21] = system: green foxtail (Setaria viridis); assay: as above; conditions: 10 days, 0 = no effect, 100 = complete control
Summary of the method: as §2

[22] = system: blackgrass (Alopecurus myosuroides); assay: as above; conditions: 10 days, 0 = no effect, 100 = complete control
Summary of the method: as §2

[23] = system: palmer (palmer amaranth, palmer pigweed, Amaranthus palmeri); assay: as above; conditions: 10 days, 0 = no effect, 100 = complete control
Summary of the method: as §2

[24] = system: wheat (Triticum aestivum); assay: as above; conditions: 10 days, 0 = no effect, 100 = complete control
Summary of the method: as §2

corn (Zea mays) [25] = assay: as above; conditions: 10 days, 0 = no effect, 100 = complete control
Summary of the method: as §2

soybean (Glycine max) [26] = assay: as above; conditions: 10 days, 0 = no effect, 100 = complete control
Summary of the method: as §2

kochia (Bassia scoparia) [27] = assay: as above; conditions: 10 days, 0 = no effect, 100 = complete control
Summary of the method: as §2

SMILES: COC(=O)C1C=CC(NC(=O)C2(C)CN(c3cc(Cl)cc(Cl)c3)C(=O)O2)C1 (stereo not shown) [Compound 42]
- Plant response rating, Barnyardgrass (0 to 100 scale, 0 is no effect and 100 is complete control) [1]: 95
- Plant response rating, Ducksalad (0 to 100 scale, 0 is no effect and 100 is complete control) [2]: 90
- Plant response rating, Sedge, Umbrella (0 to 100 scale, 0 is no effect and 100 is complete control) [3]: 95
- Plant response rating, Rice (0 to 100 scale, 0 is no effect and 100 is complete control) (rice (Oryza sativa)): 15
- Horseweed plant response rating (0 to 100 scale) ([4]; 125 g ai/ha): 80
- Horseweed plant response rating (0 to 100 scale) ([4]; 500 g ai/ha): 90
- Barnyardgrass plant response rating (0 to 100 scale) ([5]; 125 g ai/ha): 100
- Barnyardgrass plant response rating (0 to 100 scale) ([5]; 500 g ai/ha): 100
- Ragweed plant response rating (0 to 100 scale) ([6]; 125 g ai/ha): 70
- Ragweed plant response rating (0 to 100 scale) ([6]; 500 g ai/ha): 80
- Oat, Wild plant response rating (0 to 100 scale) ([7]; 125 g ai/ha): 90
- Oat, Wild plant response rating (0 to 100 scale) ([7]; 500 g ai/ha): 90
- Ryegrass, Italian plant response rating (0 to 100 scale) ([8]; 125 g ai/ha): 90
- Ryegrass, Italian plant response rating (0 to 100 scale) ([8]; 500 g ai/ha): 90
- Foxtail, Green plant response rating (0 to 100 scale) ([9]; 125 g ai/ha): 90
- Foxtail, Green plant response rating (0 to 100 scale) ([9]; 500 g ai/ha): 90
- Blackgrass plant response rating (0 to 100 scale) ([10]; 125 g ai/ha): 100
- Blackgrass plant response rating (0 to 100 scale) ([10]; 500 g ai/ha): 100
- Amaranth, Palmer / Pigweed, Palmer plant response rating (0 to 100 scale) ([11]; 125 g ai/ha): 100
- Amaranth, Palmer / Pigweed, Palmer plant response rating (0 to 100 scale) ([11]; 500 g ai/ha): 100
- Wheat plant response rating (0 to 100 scale) ([12]; 125 g ai/ha): 90
- Wheat plant response rating (0 to 100 scale) ([12]; 500 g ai/ha): 90
- Corn plant response rating (0 to 100 scale) (corn (Zea mays) [13]; 125 g ai/ha): 100
- Corn plant response rating (0 to 100 scale) (corn (Zea mays) [13]; 500 g ai/ha): 100
- Soybean plant response rating (0 to 100 scale) (soybean (Glycine max) [14]; 125 g ai/ha): 90
- Soybean plant response rating (0 to 100 scale) (soybean (Glycine max) [14]; 500 g ai/ha): 80
- Kochia plant response rating (0 to 100 scale) (kochia (Bassia scoparia) [15]; 125 g ai/ha): 80
- Kochia plant response rating (0 to 100 scale) (kochia (Bassia scoparia) [15]; 500 g ai/ha): 80
- Galium plant response rating (0 to 100 scale) ([16]; 125 g ai/ha): 70
- Galium plant response rating (0 to 100 scale) ([16]; 500 g ai/ha): 80
- Barnyardgrass plant response rating (0 to 100 scale) ([17]; 125 g ai/ha): 100
- Barnyardgrass plant response rating (0 to 100 scale) ([17]; 500 g ai/ha): 100
- Ragweed plant response rating (0 to 100 scale) ([18]; 125 g ai/ha): 20
- Ragweed plant response rating (0 to 100 scale) ([18]; 500 g ai/ha): 80
- Oat, Wild plant response rating (0 to 100 scale) ([19]; 125 g ai/ha): 90
- Oat, Wild plant response rating (0 to 100 scale) ([19]; 500 g ai/ha): 90
- Ryegrass, Italian plant response rating (0 to 100 scale) ([20]; 125 g ai/ha): 90
- Ryegrass, Italian plant response rating (0 to 100 scale) ([20]; 500 g ai/ha): 100
- Foxtail, Green plant response rating (0 to 100 scale) ([21]; 125 g ai/ha): 100
- Foxtail, Green plant response rating (0 to 100 scale) ([21]; 500 g ai/ha): 100
- Blackgrass plant response rating (0 to 100 scale) ([22]; 125 g ai/ha): 90
- Blackgrass plant response rating (0 to 100 scale) ([22]; 500 g ai/ha): 100
- Amaranth, Palmer plant response rating (0 to 100 scale) ([23]; 125 g ai/ha): 100
- Amaranth, Palmer plant response rating (0 to 100 scale) ([23]; 500 g ai/ha): 100
- Wheat plant response rating (0 to 100 scale) ([24]; 125 g ai/ha): 90
- Wheat plant response rating (0 to 100 scale) ([24]; 500 g ai/ha): 90
- Corn plant response rating (0 to 100 scale) (corn (Zea mays) [25]; 125 g ai/ha): 90
- Corn plant response rating (0 to 100 scale) (corn (Zea mays) [25]; 500 g ai/ha): 90
- Soybean plant response rating (0 to 100 scale) (soybean (Glycine max) [26]; 125 g ai/ha): 40
- Soybean plant response rating (0 to 100 scale) (soybean (Glycine max) [26]; 500 g ai/ha): 70
- Kochia plant response rating (0 to 100 scale) (kochia (Bassia scoparia) [27]; 125 g ai/ha): 90
- Kochia plant response rating (0 to 100 scale) (kochia (Bassia scoparia) [27]; 500 g ai/ha): 90
